Laboratory results taken from paper PMC10552397 (Cell Communication and Signaling : CCS, 2023).
Values joined by “and” are separate entries in the source; they are usually repeats but may differ in a detail not shown here. Equal values may be shown once.

Target: GRASP55 (Homo sapiens, UniProt Q9H8Y8)
Assay: Thermal proteome profiling compound concentration range (TPP-CCR), GRASP55
Assay type: binding
Design: endogenous in cells
Conditions: for GORASP2 dose response, average: average of n=1-3; for GORASP2 dose response, fit: value of fitted curve; for EC50: 3 min at 50 °C; for normalized.Reporter.intensity: single replicates n1-n3
Description: Adherent cells were washed in the dish once with DPBS and harvested by Trypsin–EDTA (0.25%, Thermo Fisher Scientific, Waltham, MA, USA, #25,200,056) treatment. After addition of 35 mL DPBS, the cells were pelleted by centrifugation (300 rcf, 5 min, 4 °C), and washed twice by re-suspending and pelleting using 45 mL and 1 mL DPBS, respectively, to remove excess trypsin and for transfer into pre-weighed 2 mL Eppendorf tubes to determine the cell pellet wet weights as quality check after centrifugation (300 rcf, 5 min, 4 °C) and complete removal of the supernatant. Cells for TPP-TR were resuspended using 1 mL, and cells for TPP-CCR were resuspended using 0.4 mL ice-cold DPBS, respectively, supplemented with protease inhibitor cocktail (Roche, Basel, Switzerland, #5,892,791,001). […] Cell suspensions were shortly centrifuged (1 s or less) using a benchtop centrifuge to release trapped air and to achieve an even liquid level without pelleting the cells. The samples were then temperature treated by a 7 min pre-incubation at RT, 3 min temperature treatment in the PCR cycler (DNA Engine Tetrad 2, lid temperature 70 °C) at different temperatures (37 °C or 50 °C for TPP-CCR or the temperatures given in Table 2 for TPP-TR) and a 3 min post-incubation at RT in a metal heating block for uniform heat dissipation.
After temperature treatment, samples were supplemented with lysis buffer (final concentrations: 0.36 U/µL benzonase, 1.5 mM MgCl2, 1 mM Na3VO4, 10 mM NaF, 2.5 mM Na4P2O7, 0.8% w/v NP-40) for 1 h on ice. The lysates were cleared from cell debris as well as denatured and precipitated proteins by centrifugation at 20,000 rcf and 4 °C for 30 min. The total protein concentration of the resulting cell extracts containing the fraction of soluble, non-denatured proteins was determined (Pierce 660 nm Protein Assay, BSA as standard). Cell extracts were shock frozen in liquid nitrogen and stored at -80 °C. The three replicates for TPP-TR and TPP-CCR were prepared on consecutive days, respectively. The two (37 °C or 50 °C) x ten (concentrations) x three (replicates) = 60 TPP-CCR samples and two (treatment and control) x ten (temperatures) x three (replicates) = 60 TPP-TR samples were analyzed by LC–MS/MS. GRASP55 was additionally quantified from the TPP-TR samples by immunoblotting as described in the respective section.
For TPP-CCR, SP3 was performed as described with slight modifications to the original protocol using on average 5 µg total protein per sample and resulting in theoretically 5 µg peptides in 22 µL 50 mM triethylammonium bicarbonate per sample. For each of the two (treatment and control) x three (replicates) = six TPP-TR temperature treatment sample sets, the same volume for each of the ten temperature samples was used for SP3 processing, thus, maintaining the information about the temperature dependent non-denatured protein content. This volume was calculated such that the lowest two temperature samples (36.5 °C and 41.2 °C) contained 10 µg total protein on average. The samples were diluted using SDS containing buffer (20 µL final, final concentrations: 7.5% glycerol, 3% SDS, 37.5 mM Tris/HCl pH 7.0) and the proteins were reduced, alkylated, and precipitated on the solid phase as described using adjusted volumes (2 × due to processing 10 µg instead of 5 µg). Volumes for washing of the aggregated proteins on the solid phase and for tryptic digestion were kept unchanged, however, to maintain the maximal total protein to trypsin/Lys-C ratio at 50:1 in the two rounds of digestion (13 h and 4 h), respectively, 2 × 0.2 µg trypsin/Lys-C was used per sample, theoretically resulting in at most about 10 µg peptides in 22 µL 50 mM triethylammonium bicarbonate. […]

What does the source list for `CCCCCC1=C/C(=C/c2[nH]c(-c3ccc[nH]3)cc2OC)N=C1C` [Prodigiosin, prodigiosin]?
GORASP2 dose response, average (37°C, 0.0976562 nM prodigiosin): -0.42; GORASP2 dose response, fit (37°C, 0.0976562 nM prodigiosin): 0.0663; GORASP2 dose response, average (37°C, 0.390625 nM prodigiosin): 0.54; GORASP2 dose response, fit (37°C, 0.390625 nM prodigiosin): 0.10; GORASP2 dose response, average (37°C, 1.5625 nM prodigiosin): 0.10; GORASP2 dose response, fit (37°C, 1.5625 nM prodigiosin): 0.16; GORASP2 dose response, average (37°C, 6.25 nM prodigiosin): 0.08; GORASP2 dose response, fit (37°C, 6.25 nM prodigiosin): 0.23; GORASP2 dose response, average (37°C, 25 nM prodigiosin): 0.33; GORASP2 dose response, fit (37°C, 25 nM prodigiosin): 0.33; GORASP2 dose response, average (37°C, 100 nM prodigiosin): 0.64; GORASP2 dose response, fit (37°C, 100 nM prodigiosin): 0.44; GORASP2 dose response, average (37°C, 400 nM prodigiosin): 0.47; GORASP2 dose response, fit (37°C, 400 nM prodigiosin): 0.56; GORASP2 dose response, average (37°C, 1600 nM prodigiosin): 0.85; GORASP2 dose response, fit (37°C, 1600 nM prodigiosin): 0.68; GORASP2 dose response, average (37°C, 6400 nM prodigiosin): 0.55; GORASP2 dose response, fit (37°C, 6400 nM prodigiosin): 0.77; GORASP2 dose response, average (50°C, 0.0976562 nM prodigiosin): 0.0745; GORASP2 dose response, fit (50°C, 0.0976562 nM prodigiosin): 0.06; GORASP2 dose response, average (50°C, 0.390625 nM prodigiosin): 0.13; GORASP2 dose response, fit (50°C, 0.390625 nM prodigiosin): 0.17; GORASP2 dose response, average (50°C, 1.5625 nM prodigiosin): 0.40; GORASP2 dose response, fit (50°C, 1.5625 nM prodigiosin): 0.39; GORASP2 dose response, average (50°C, 6.25 nM prodigiosin): 0.72; GORASP2 dose response, fit (50°C, 6.25 nM prodigiosin): 0.68; GORASP2 dose response, average (50°C, 25 nM prodigiosin): 0.81; GORASP2 dose response, fit (50°C, 25 nM prodigiosin): 0.87; GORASP2 dose response, average (50°C, 100 nM prodigiosin): 0.97; GORASP2 dose response, fit (50°C, 100 nM prodigiosin): 0.96; GORASP2 dose response, average (50°C, 400 nM prodigiosin): 0.97; GORASP2 dose response, fit (50°C, 400 nM prodigiosin): 0.99; GORASP2 dose response, average (50°C, 1600 nM prodigiosin): 1.04; GORASP2 dose response, fit (50°C, 1600 nM prodigiosin): 1.00; GORASP2 dose response, average (50°C, 6400 nM prodigiosin): 0.85; GORASP2 dose response, fit (50°C, 6400 nM prodigiosin): 1.00; EC50 (EC50 of GRASP55 stabilization, HeLa wt, 6 h): 2.6 nM; diff pseudoR2(50-37°C) (GRASP55/GORASP2): 0.81; pseudoR2 (dose response curve fit, 37°C) (GRASP55/GORASP2, 37°C): 0.16; normalized.Reporter.intensity (GRASP55/GORASP2, 37°C, 0.0976562 nM prodigiosin): 0.13 and -0.19 and -1.19; normalized.Reporter.intensity (GRASP55/GORASP2, 37°C, 0.390625 nM prodigiosin): 0.0349 and 0.46 and 1.11; normalized.Reporter.intensity (GRASP55/GORASP2, 37°C, 1.5625 nM prodigiosin): 0.45 and -0.0156 and -0.12; normalized.Reporter.intensity (GRASP55/GORASP2, 37°C, 6.25 nM prodigiosin): 0.55 and 0.11 and -0.42; normalized.Reporter.intensity (GRASP55/GORASP2, 37°C, 25 nM prodigiosin): 0.93 and 0.24 and -0.19; normalized.Reporter.intensity (GRASP55/GORASP2, 37°C, 100 nM prodigiosin): 1.03 and 0.10 and 0.80; normalized.Reporter.intensity (GRASP55/GORASP2, 37°C, 400 nM prodigiosin): 0.81 and 0.51 and 0.08; normalized.Reporter.intensity (GRASP55/GORASP2, 37°C, 1600 nM prodigiosin): 1.12 and 0.54 and 0.88; normalized.Reporter.intensity (GRASP55/GORASP2, 37°C, 6400 nM prodigiosin): -0.23 and 0.82 and 1.06; H (dose response curve fit parameters, 37°C) (GRASP55/GORASP2, 37°C, Hill slope of fit): 0.35 and 0.3479; pseudoR2 (dose response curve fit, 50°C) (GRASP55/GORASP2, 50°C): 0.97; normalized.Reporter.intensity (GRASP55/GORASP2, 50°C, 0.0976562 nM prodigiosin): 0.0172 and 0.11 and 0.10; normalized.Reporter.intensity (GRASP55/GORASP2, 50°C, 0.390625 nM prodigiosin): 0.12 and 0.19 and 0.10; normalized.Reporter.intensity (GRASP55/GORASP2, 50°C, 1.5625 nM prodigiosin): 0.43 and 0.35 and 0.41; normalized.Reporter.intensity (GRASP55/GORASP2, 50°C, 6.25 nM prodigiosin): 0.85 and 0.64 and 0.65; normalized.Reporter.intensity (GRASP55/GORASP2, 50°C, 25 nM prodigiosin): 0.87 and 0.76 and 0.81; normalized.Reporter.intensity (GRASP55/GORASP2, 50°C, 100 nM prodigiosin): 0.94 and 0.97 and 0.99; normalized.Reporter.intensity (GRASP55/GORASP2, 50°C, 400 nM prodigiosin): 0.91 and 0.97 and 1.04; normalized.Reporter.intensity (GRASP55/GORASP2, 50°C, 1600 nM prodigiosin): 1.02 and 1.10 and 1.01; normalized.Reporter.intensity (GRASP55/GORASP2, 50°C, 6400 nM prodigiosin): 0.82 and 0.89 and 0.84; H (dose response curve fit parameters, 50°C) (GRASP55/GORASP2, 50°C, Hill slope of fit): 0.84 and 0.8417; dose response of GRASP55 at 37 °C (abundance control) (HeLa wt, 6 h, 37 °C): no dose response effects; EC50 (pEC50 of GRASP55 stabilization, HeLa wt, 6 h): 2.63 nM
